# Measured values from article PMC10586017 (ACS Omega, 2023).
# Marks after values point to notes of the source that are not given here.
# Experiments:
# Type in all cases: cell-based
# [1] = tested on: Caco-2 cells; assay: cells; conditions: Homo sapiens, Caco-2, read-out: mean IC50 Caco-2 ± SD
# [2] = tested on: HepG-2 cells; assay: cells; conditions: Homo sapiens, HepG2, read-out: mean IC50 HepG-2 ± SD
# [3] = tested on: MCF-7 cells; assay: cells; conditions: Homo sapiens, MCF7, read-out: mean IC50 MCF-7 ± SD
# [4] = tested on: Vero cells; assay: cells; conditions: Chlorocebus sabaeus, read-out: mean IC50 Vero cells
# [5] = target: eIF4E (Homo sapiens, UniProt P06730)
# Chain of eIF4E (P06730 whole entry): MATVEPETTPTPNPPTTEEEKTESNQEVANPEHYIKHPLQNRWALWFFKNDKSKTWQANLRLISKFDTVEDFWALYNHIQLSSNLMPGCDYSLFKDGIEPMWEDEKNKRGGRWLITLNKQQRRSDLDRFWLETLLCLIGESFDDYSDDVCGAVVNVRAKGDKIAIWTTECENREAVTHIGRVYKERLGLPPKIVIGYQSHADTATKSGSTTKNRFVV
# [6] = target: p-eIF4E (Homo sapiens, UniProt P06730)
# Chain of p-eIF4E (P06730 whole entry): as above
# [7] = tested on: β-actin
Compound,IC50 [1] [µM],IC50 [2] [µM],IC50 [3] [µM],IC50 [4] [µM],"change in fold, eIF4E [5]",decrease in eIF4E protein [5] [%],"mean protein, eIF4E [5] [ng/mL]","protein ratio normalized to reference protein, eIF4E [5]","change in fold, p-eIF4E [6]",inhibition (decrease) of p-eIF4E expression [6] [%],"mean protein, p-eIF4E [6] [ng/mL]","protein ratio normalized to reference protein, p-eIF4E [6]","mean protein, β-actin [7] [ng/mL]","protein ratio normalized to reference protein, β-actin [7]"
NC(=O)c1ncn([C@@H]2O[C@H](CO)[C@@H](O)[C@H]2O)n1 [Ribavirin],9.78 ± 0.94,63.9 ± 3.43,10.2 ± 0.15,> 100,0.68,32.1,2.520,42.6*,0.47,53,2.190,35.5*,3.118,72.2
CO[C@H]1C[C@@H]2CC[C@@H](C)[C@@](O)(O2)C(=O)C(=O)N2CCCC[C@H]2C(=O)O[C@H]([C@H](C)C[C@@H]2CC[C@@H](O)[C@H](OC)C2)CC(=O)[C@H](C)/C=C(\C)[C@@H](O)[C@@H](OC)C(=O)[C@H](C)C[C@H](C)/C=C/C=C/C=C/1C [Rapamycin],27.7 ± 1.63,47.6 ± 3.83,5.62 ± 0.24,> 100,,,,,,,,,,
